ChEMBL document CHEMBL4613306, “BOPC1 Enantiomers Preparation and HuR Interaction Study. From Molecular Modeling to a Curious DEEP-STD NMR Application” (ACS Med Chem Lett, 2020)
Calls of active or inactive are those of the source. The calls are words filed in the database; no cut-off is given here.

How the values were obtained:
[1] = biological target: ELAV-like protein 1 (Homo sapiens) (UniProt Q15717); test: Binding affinity to HuR (unknown origin) assessed as positive STD factor by measuring interaction of protons of ring B and its methoxy group with protein at 400 uM in 100% D2O buffer by DEEP-STD NMR analysis
[2] = biological target: ELAV-like protein 1 (Homo sapiens) (UniProt Q15717); test: Binding affinity to HuR (unknown origin) assessed as interaction of ring A and protons 5 and 3 with apolar residues and projection of protons 16 and 9-10 with polar residues of protein at 400 uM in H2O:D2O (90:10) buffer by DEEP-STD NMR analysis
[3] = biological target: ELAV-like protein 1 (Homo sapiens) (UniProt Q15717); test: Binding affinity to HuR (unknown origin) assessed as negative STD factor by measuring interaction of protons 3, 9-10 and 16 with protein at 400 uM in 100% D2O buffer by DEEP-STD NMR analysis
[4] = biological target: ELAV-like protein 1 (Homo sapiens) (UniProt Q15717); test: Binding affinity to HuR (unknown origin) assessed as interaction of ring A and protons 16 with hydrophobic residues and projection of ring B and its methoxy group with polar residues of protein at 400 uM in H2O:D2O (90:10) buffer by DEEP-STD NMR analysis

ELAV-like protein 1 (Homo sapiens), sequence (Q15717 whole entry): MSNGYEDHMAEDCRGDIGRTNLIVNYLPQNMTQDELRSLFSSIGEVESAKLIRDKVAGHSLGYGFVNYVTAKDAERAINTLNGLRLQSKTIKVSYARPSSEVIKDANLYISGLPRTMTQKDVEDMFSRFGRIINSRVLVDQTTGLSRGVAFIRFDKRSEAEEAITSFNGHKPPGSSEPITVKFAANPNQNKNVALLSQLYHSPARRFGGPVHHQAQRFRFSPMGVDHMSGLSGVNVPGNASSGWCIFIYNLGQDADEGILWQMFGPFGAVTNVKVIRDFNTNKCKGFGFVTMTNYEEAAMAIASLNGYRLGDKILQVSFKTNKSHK

Row | Activity [1] | Activity [2] | Activity [3] | Activity [4] | SMILES
1 | Active | Active |  |  | COc1cc(OC)cc([C@@H]2[C@@H](C(=O)NCCNCc3ccccc3)CCC(=O)N2CC(C)C)c1
2 |  |  | Active | Active | COc1cc(OC)cc([C@H]2[C@H](C(=O)NCCNCc3ccccc3)CCC(=O)N2CC(C)C)c1
